The text below walks through data of PubChem BioAssay AID328 (DTP/NCI, 2004).

The test system of this assay is BDF1 mice, P388 leukemia ip, median survival T/C. Kind of assay: NCI In Vivo Anticancer Drug Screen. Data for tumor model P388 Leukemia (intraperitoneal) in B6D2F1 (BDF1) mice. The following applies: endpoint: median survival time, higher = longer survival. The gist of the method:
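Read-out is survival of treated animals expressed relative to the vehicle group, as a T/C ratio.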

The mark [1] stands for this setting: dose: 25.0 mg/kg/injection, schedule: Q01DX009 (ip), vehicle: saline with Tween-80.
Setting [2] is: dose: 50.0 mg/kg/injection, schedule: Q01DX009 (ip), vehicle: saline with Tween-80.
[3] abbreviates: dose: 100.0 mg/kg/injection, schedule: Q01DX009 (ip), vehicle: saline with Tween-80.
Setting [4] is: dose: 12.5 mg/kg/injection, schedule: Q01DX009 (ip), vehicle: saline.
Where [5] appears, read: dose: 25.0 mg/kg/injection, schedule: Q01DX009 (ip), vehicle: saline.
The mark [6] stands for this setting: dose: 6.25 mg/kg/injection, schedule: Q01DX009 (ip), vehicle: saline with Tween-80.
The mark [7] stands for this setting: dose: 100.0 mg/kg/injection, schedule: Q04DX003 (ip), vehicle: saline with Tween-80.
Where [8] appears, read: dose: 200.0 mg/kg/injection, schedule: Q01DX009 (ip), vehicle: saline with Tween-80.
The mark [9] stands for this setting: dose: 200.0 mg/kg/injection, schedule: Q04DX003 (ip), vehicle: saline with Tween-80.

“And” between values parts separate entries of the source, which are not always exact repeats. Equal values may be shown once. Toxic doses and inconclusive results are not listed.

For `CC[C@H](CC[C@@H](C)[C@H]1CC[C@H]2[C@@H]3CC=C4C[C@@H](OC(=O)CSC(CC(=O)O)C(=O)O)CC[C@]4(C)[C@H]3CC[C@]12C)C(C)C` (stereo not given in full), the T/C reads like this: (dose: 100.0 mg/kg/injection, schedule: Q01DX009 (ip), vehicle: Klucel (hydroxypropylcellulose) (HPC)) 109 % of control; (dose: 200.0 mg/kg/injection, schedule: Q01DX009 (ip), vehicle: Klucel (hydroxypropylcellulose) (HPC)) 104 % of control.
As to `CCCCCCCCCCCCN1C(=O)[N+](C)(C)N=C1[O-]`, the T/C is 90 % of control under setting [1], 90 % of control under setting [2] and 92 % of control under setting [3].
As to `CCCCCCCCCCCC[n+]1ccc(C)cc1C`, the T/C was 107 % of control (dose: 62.0 micrograms/kg/injection, schedule: Q01DX009 (ip), vehicle: saline); 102 % of control (dose: 125.0 micrograms/kg/injection, schedule: Q01DX009 (ip), vehicle: saline); 113 % of control (dose: 250.0 micrograms/kg/injection, schedule: Q01DX009 (ip), vehicle: saline); 116 % of control (dose: 500.0 micrograms/kg/injection, schedule: Q01DX009 (ip), vehicle: saline).
For `O=[N+]([O-])c1cccc(C[n+]2ccccc2C2OCCO2)c1`, the T/C is, setting by setting: (dose: 8.75 mg/kg/injection, schedule: Q01DX009 (ip), vehicle: saline) 104 % of control; (dose: 17.5 mg/kg/injection, schedule: Q01DX009 (ip), vehicle: saline) 100 % of control; (dose: 26.25 mg/kg/injection, schedule: Q04DX003 (ip), vehicle: saline) 100 % of control; (dose: 35.0 mg/kg/injection, schedule: Q01DX009 (ip), vehicle: saline) 109 % of control; (dose: 52.5 mg/kg/injection, schedule: Q04DX003 (ip), vehicle: saline) 95 % of control.
Turning to `Nc1ccc(C(=O)O)c([N+](=O)[O-])c1`, the T/C is, setting by setting: under setting [4], 92 % of control; under setting [5], 100 % of control; (dose: 50.0 mg/kg/injection, schedule: Q01DX009 (ip), vehicle: saline) 105 % of control and 118 % of control; (dose: 50.0 mg/kg/injection, schedule: Q04DX003 (ip), vehicle: saline) 99 % of control; (dose: 100.0 mg/kg/injection, schedule: Q01DX009 (ip), vehicle: saline) 94 % of control and 98 % of control; (dose: 100.0 mg/kg/injection, schedule: Q04DX003 (ip), vehicle: saline) 100 % of control. Besides, the T/C by setting is: (dose: 200.0 mg/kg/injection, schedule: Q01DX009 (ip), vehicle: saline) 107 % of control; (dose: 200.0 mg/kg/injection, schedule: Q04DX003 (ip), vehicle: saline) 112 % of control; (dose: 400.0 mg/kg/injection, schedule: Q01DX009 (ip), vehicle: saline) 100 % of control; (dose: 400.0 mg/kg/injection, schedule: Q04DX003 (ip), vehicle: saline) 103 % of control.
With `CSc1ncc2cnccn12`, the T/C was 105 % of control (dose: 12.5 mg/kg/injection, schedule: Q01DX009 (ip), vehicle: water); 96 % of control (dose: 25.0 mg/kg/injection, schedule: Q01DX009 (ip), vehicle: water); 100 % of control (dose: 25.0 mg/kg/injection, schedule: Q04DX003 (ip), vehicle: water); 100 % of control (dose: 50.0 mg/kg/injection, schedule: Q01DX009 (ip), vehicle: water); 104 % of control (dose: 50.0 mg/kg/injection, schedule: Q04DX003 (ip), vehicle: water); 95 % of control (dose: 100.0 mg/kg/injection, schedule: Q04DX003 (ip), vehicle: water).
On to `Cc1cc2c(c(O)c1CN1CCOCC1)C1=C(CCCC1)C(C)(C)O2`, for which the T/C runs as follows: (dose: 1.0 mg/kg/injection, schedule: Q01DX001 (ip), vehicle: Klucel (hydroxypropylcellulose) (HPC)) 99 % of control; (dose: 2.0 mg/kg/injection, schedule: Q01DX001 (ip), vehicle: Klucel (hydroxypropylcellulose) (HPC)) 112 % of control; (dose: 4.0 mg/kg/injection, schedule: Q01DX001 (ip), vehicle: Klucel (hydroxypropylcellulose) (HPC)) 104 % of control; (dose: 8.0 mg/kg/injection, schedule: Q01DX001 (ip), vehicle: Klucel (hydroxypropylcellulose) (HPC)) 104 % of control; (dose: 16.0 mg/kg/injection, schedule: Q01DX001 (ip), vehicle: Klucel (hydroxypropylcellulose) (HPC)) 109 % of control; (dose: 32.0 mg/kg/injection, schedule: Q01DX001 (ip), vehicle: Klucel (hydroxypropylcellulose) (HPC)) 98 % of control. Moreover, the T/C is 96 % of control (dose: 64.0 mg/kg/injection, schedule: Q01DX001 (ip), vehicle: Klucel (hydroxypropylcellulose) (HPC)); 106 % of control (dose: 128.0 mg/kg/injection, schedule: Q01DX001 (ip), vehicle: Klucel (hydroxypropylcellulose) (HPC)); 98 % of control (dose: 256.0 mg/kg/injection, schedule: Q01DX001 (ip), vehicle: Klucel (hydroxypropylcellulose) (HPC)).
With `NC(=O)NO`, the T/C is 100 % of control (dose: 31.3 mg/kg/injection, schedule: Q01DX010 (ip), vehicle: saline); 100 % of control (dose: 62.5 mg/kg/injection, schedule: Q01DX010 (ip), vehicle: saline); 100 % of control (dose: 125.0 mg/kg/injection, schedule: Q01DX010 (ip), vehicle: saline); 100 % of control (dose: 250.0 mg/kg/injection, schedule: Q01DX010 (ip), vehicle: saline); 150 % of control (dose: 500.0 mg/kg/injection, schedule: Q01DX010 (ip), vehicle: saline); 100 % of control (dose: 750.0 mg/kg/injection, schedule: Q01DX009 (ip), vehicle: saline).
Take `CC1OC(Oc2c(-c3cc(O)c(O)c(O)c3)oc3cc(O)cc(O)c3c2=O)C(O)C(O)C1O` (stereo not given): the T/C reads like this: under setting [2], 119 % of control; under setting [3], 100 % of control.
With `C1CCc2nnnn2CC1`, the T/C (dose: 2.34 mg/kg/injection, schedule: Q04DX003 (ip), vehicle: saline) is 91 % of control; the T/C (dose: 4.68 mg/kg/injection, schedule: Q04DX003 (ip), vehicle: saline) is 91 % of control; the T/C (dose: 9.37 mg/kg/injection, schedule: Q04DX003 (ip), vehicle: saline) was 91 % of control; the T/C under setting [4] was 118 % of control; the T/C (dose: 18.75 mg/kg/injection, schedule: Q04DX003 (ip), vehicle: saline) is 100 % of control; the T/C under setting [5] is 118 % of control.
Regarding `C[Si](C)(OC(=O)N(CCCl)CCCl)O[Si](C)(C)OC(=O)N(CCCl)CCCl`, the T/C under setting [6] was 110 % of control, the T/C under setting [1] is 185 % of control and the T/C under setting [2] was 208 % of control.
Consider `C=C1C/C(=C/C)C(=O)O[C@@H]2CCN3CC=C(COC(=O)[C@]1(C)O)[C@H]23`, for which the T/C reads like this: (dose: 25.0 mg/kg/injection, schedule: Q01DX010 (ip), vehicle: carboxymethylcellulose (CMC)) 111 % of control; (dose: 50.0 mg/kg/injection, schedule: Q01DX010 (ip), vehicle: carboxymethylcellulose (CMC)) 111 % of control; (dose: 100.0 mg/kg/injection, schedule: Q01DX010 (ip), vehicle: carboxymethylcellulose (CMC)) 111 % of control.
Turning to `c1cc[c]([Sb]([c]2ccccc2)[c]2ccccc2)cc1`, where the note is “dose: 20.0 mg/kg/injection, schedule: Q04DX003 (ip), vehicle: saline with Tween-80”, the T/C was 120 % of control.
In the case of `OCCOc1c(Cl)cc(Cl)cc1Cl`, the T/C is 100 % of control under setting [2]; 100 % of control under setting [3]; 113 % of control under setting [7]; 100 % of control under setting [8]; 100 % of control under setting [9].
For `CC(C)(/C=C/c1ccccc1)C(=O)O`, the T/C runs as follows: under setting [2], 95 % of control; under setting [3], 102 % of control; under setting [8], 100 % of control.
Turning to `O=C(C=C(C(F)(F)F)C(F)(F)F)c1ccc(Cl)cc1`, the T/C is, setting by setting: under setting [6], 100 % of control; (dose: 12.5 mg/kg/injection, schedule: Q01DX009 (ip), vehicle: saline with Tween-80) 100 % of control; under setting [1], 118 % of control.
For the molecule `COc1cc([N+](=O)[O-])c(C)cc1Nc1ccc(OC)c(OC)c1`, the T/C runs as follows: under setting [2], 100 % of control; under setting [3], 103 % of control and 106 % of control; under setting [7], 100 % of control; under setting [8], 87 % of control and 94 % of control; under setting [9], 100 % of control; (dose: 400.0 mg/kg/injection, schedule: Q01DX009 (ip), vehicle: saline with Tween-80) 97 % of control and 100 % of control. Besides, the T/C (dose: 400.0 mg/kg/injection, schedule: Q04DX003 (ip), vehicle: saline with Tween-80) was 90 % of control.
Regarding `CC(=O)O.CC(=O)O.[NH-]C(CCC(N)=O)C(=O)O.[NH-]C(CCC(N)=O)C(=O)O.[Ni+2]` (stereo not given), the T/C is 104 % of control under setting [4] and 93 % of control under setting [5].
